# How the values were obtained:
# Assay in all cases: Test D
# Format in all cases: in vivo
# [1] = tested on: black nightshade (Solanum nigra); parameters: key: 0 is no effect; 100 is complete control; settings: POSTEMERGENCE
# Experimental: (§1) Compounds evaluated in this test were formulated in a non-phytotoxic solvent mixture which included a surfactant and applied to plants that were in the 1- to 4-leaf stage (postemergence application). A mixture of sandy loam soil and greenhouse potting mix in a 60:40 ratio was used for the postemergence test.
# (§2) Plantings of these crops and weed species were adjusted to produce plants of appropriate size for the postemergence test. All plant species were grown using normal greenhouse practices. Crop and weed species include alfalfa (Medicago sativa), annual bluegrass (Poa annua), blackgrass (Alopecurus myosuroides), black nightshade (Solanum nigra), chickweed (Stellaria media), common poppy (Papaver rhoeas), deadnettle (Lamium amplexicaule), downy brome (Bromus tectorum), field violet (Viola arvensis), galium 2 (Galium aparine), green foxtail (Setaria viridis), Italian ryegrass (Lolium multiflorum), jointed goatgrass (Aegilops cylindrica), kochia (Kochia scoparia), lambsquarters (Chenopodium album), lentil (Lens culinaris), littleseed canarygrass (Phalaris minor), pea (Pisum sativum), potato (Solanum tuberosum), rape (Brassica napus), redroot pigweed (Amaranthus retroflexus), Russian thistle (Salsola kali), scentless chamomile (Matricaria inodora), sorghum (Sorghum vulgare), spring barley (Hordeum vulgare), sugar beet (Beta vulgaris), sunflower (Helianthus annuus), ivyleaf speedwell (Veronica hederaefolia), spring wheat (Triticum aestivum), winter wheat (Triticum aestivum), wild buckwheat (Polygonum convolvulus), wild mustard (Sinapis arvensis), wild oat (Avena fatua), windgrass (Apera spica-venti) and winter barley (Hordeum vulgare).
# (§3) Treated plants and untreated controls were maintained in a greenhouse for approximately 21 to 28 days, after which all treated plants were compared to untreated controls and visually evaluated. Plant response ratings, summarized in Table D, are based upon a 0 to 100 scale where 0 is no effect and 100 is complete control. A dash response (−) means no test result.
# [2] = tested on: chickweed (Stellaria media); parameters: key: 0 is no effect; 100 is complete control; settings: POSTEMERGENCE
# Experimental: as §1, §2, §3
# [3] = tested on: common poppy (Papaver rhoeas); parameters: key: 0 is no effect; 100 is complete control; settings: POSTEMERGENCE
# Experimental: as §1, §2, §3
# [4] = tested on: deadnettle (Lamium amplexicaule); parameters: key: 0 is no effect; 100 is complete control; settings: POSTEMERGENCE
# Experimental: as §1, §2, §3
# rape (Brassica napus) = tested on: rape (Brassica napus); parameters: key: 0 is no effect; 100 is complete control; settings: POSTEMERGENCE
# Experimental: as §1, §2, §3
# [5] = tested on: sugar beet (Beta vulgaris); parameters: key: 0 is no effect; 100 is complete control; settings: POSTEMERGENCE
# Experimental: as §1, §2, §3
# [6] = tested on: wild mustard (Sinapis arvensis); parameters: key: 0 is no effect; 100 is complete control; settings: POSTEMERGENCE
# Experimental: as §1, §2, §3
# [7] = tested on: blackgrass (Alopecurus myosuroides); settings: PREEMERGENCE
# [8] = tested on: downy brome (Bromus tectorum); settings: PREEMERGENCE
# [9] = tested on: redroot pigweed (Amaranthus retroflexus); parameters: key: 0 is no effect; 100 is complete control; settings: PREEMERGENCE
# [10] = tested on: Russian thistle (Salsola kali); parameters: key: 0 is no effect; 100 is complete control; settings: PREEMERGENCE
# [11] = tested on: sugar beet (Beta vulgaris); parameters: key: 0 is no effect; 100 is complete control; settings: PREEMERGENCE
# [12] = tested on: winter wheat (Triticum aestivum); settings: PREEMERGENCE
# [13] = tested on: galium 2 (Galium aparine); parameters: key: 0 is no effect; 100 is complete control; settings: PREEMERGENCE
structure (smiles),measurement,setting,value
Cc1cnc(-n2ccc(C(F)(F)F)n2)nc1Cn1ccc(C(F)(F)F)n1 [Compound 52],"Plant response rating, Blk nightshade",[1]; Rate 16 g/ha,55
same,"Plant response rating, Blk nightshade",[1]; Rate 31 g/ha,60
same,"Plant response rating, Blk nightshade",[1]; Rate 62 g/ha,65
same,"Plant response rating, Blk nightshade",[1]; Rate 125 g/ha,65
same,"Plant response rating, Chickweed",[2]; Rate 16 g/ha,30
same,"Plant response rating, Chickweed",[2]; Rate 31 g/ha,50
same,"Plant response rating, Chickweed",[2]; Rate 62 g/ha,70
same,"Plant response rating, Chickweed",[2]; Rate 125 g/ha,80
same,"Plant response rating, Common poppy",[3]; Rate 16 g/ha,60
same,"Plant response rating, Common poppy",[3]; Rate 31 g/ha,100
same,"Plant response rating, Common poppy",[3]; Rate 62 g/ha,100
same,"Plant response rating, Common poppy",[3]; Rate 125 g/ha,100
same,"Plant response rating, Deadnettle",[4]; Rate 16 g/ha,45
same,"Plant response rating, Deadnettle",[4]; Rate 31 g/ha,100
same,"Plant response rating, Deadnettle",[4]; Rate 62 g/ha,100
same,"Plant response rating, Deadnettle",[4]; Rate 125 g/ha,98
same,"Plant response rating, Rape",rape (Brassica napus); Rate 16 g/ha,65
same,"Plant response rating, Rape",rape (Brassica napus); Rate 31 g/ha,65
same,"Plant response rating, Rape",rape (Brassica napus); Rate 62 g/ha,98
same,"Plant response rating, Rape",rape (Brassica napus); Rate 125 g/ha,85
same,"Plant response rating, Sugar beet",[5]; Rate 16 g/ha,100
same,"Plant response rating, Sugar beet",[5]; Rate 31 g/ha,100
same,"Plant response rating, Sugar beet",[5]; Rate 62 g/ha,100
same,"Plant response rating, Sugar beet",[5]; Rate 125 g/ha,100
same,"Plant response rating, Wild mustard",[6]; Rate 16 g/ha,60
same,"Plant response rating, Wild mustard",[6]; Rate 31 g/ha,70
same,"Plant response rating, Wild mustard",[6]; Rate 62 g/ha,98
same,"Plant response rating, Wild mustard",[6]; Rate 125 g/ha,100
same,"Plant response rating, Blackgrass",[7]; Rate 31 g/ha,50
same,"Plant response rating, Blackgrass",[7]; Rate 62 g/ha,80
same,"Plant response rating, Blackgrass",[7]; Rate 125 g/ha,90
same,"Plant response rating, Downy brome",[8]; Rate 31 g/ha,30
same,"Plant response rating, Downy brome",[8]; Rate 62 g/ha,40
same,"Plant response rating, Downy brome",[8]; Rate 125 g/ha,50
same,"Plant response rating, Redroot pigweed",[9]; Rate 31 g/ha,90
same,"Plant response rating, Redroot pigweed",[9]; Rate 62 g/ha,90
same,"Plant response rating, Redroot pigweed",[9]; Rate 125 g/ha,100
same,"Plant response rating, Russian thistle",[10]; Rate 31 g/ha,30
same,"Plant response rating, Russian thistle",[10]; Rate 62 g/ha,85
same,"Plant response rating, Russian thistle",[10]; Rate 125 g/ha,85
same,"Plant response rating, Sugar beet",[11]; Rate 31 g/ha,100
same,"Plant response rating, Sugar beet",[11]; Rate 62 g/ha,100
same,"Plant response rating, Sugar beet",[11]; Rate 125 g/ha,100
same,"Plant response rating, Wheat (winter)",[12]; Rate 31 g/ha,50
same,"Plant response rating, Wheat (winter)",[12]; Rate 62 g/ha,60
same,"Plant response rating, Wheat (winter)",[12]; Rate 125 g/ha,60
"Cc1cnc(-c2ccc(C(F)(F)F)cc2)nc1Cc1cccc(C(F)(F)F)c1 [Example 1, 5-methyl-2-[4-(trifluoromethyl)phenyl]-4-[[3-(trifluoromethyl)phenyl]methyl]pyrimidine]","Plant response rating, Blk nightshade",[1]; Rate 16 g/ha,60
same,"Plant response rating, Blk nightshade",[1]; Rate 62 g/ha,50
same,"Plant response rating, Blk nightshade",[1]; Rate 125 g/ha,50
same,"Plant response rating, Chickweed",[2]; Rate 16 g/ha,80
same,"Plant response rating, Chickweed",[2]; Rate 62 g/ha,80
same,"Plant response rating, Chickweed",[2]; Rate 125 g/ha,70
same,"Plant response rating, Common poppy",[3]; Rate 16 g/ha,50
same,"Plant response rating, Common poppy",[3]; Rate 31 g/ha,100
same,"Plant response rating, Common poppy",[3]; Rate 62 g/ha,100
same,"Plant response rating, Common poppy",[3]; Rate 125 g/ha,100
same,"Plant response rating, Deadnettle",[4]; Rate 16 g/ha,85
same,"Plant response rating, Deadnettle",[4]; Rate 31 g/ha,70
same,"Plant response rating, Deadnettle",[4]; Rate 62 g/ha,70
same,"Plant response rating, Deadnettle",[4]; Rate 125 g/ha,70
same,"Plant response rating, Rape",rape (Brassica napus); Rate 16 g/ha,65
same,"Plant response rating, Rape",rape (Brassica napus); Rate 31 g/ha,100
same,"Plant response rating, Rape",rape (Brassica napus); Rate 62 g/ha,100
same,"Plant response rating, Rape",rape (Brassica napus); Rate 125 g/ha,85
same,"Plant response rating, Sugar beet",[5]; Rate 16 g/ha,45
same,"Plant response rating, Sugar beet",[5]; Rate 31 g/ha,75
same,"Plant response rating, Sugar beet",[5]; Rate 62 g/ha,90
same,"Plant response rating, Sugar beet",[5]; Rate 125 g/ha,100
same,"Plant response rating, Wild mustard",[6]; Rate 16 g/ha,85
same,"Plant response rating, Wild mustard",[6]; Rate 31 g/ha,100
same,"Plant response rating, Wild mustard",[6]; Rate 62 g/ha,100
same,"Plant response rating, Wild mustard",[6]; Rate 125 g/ha,100
same,"Plant response rating, Blackgrass",[7]; Rate 31 g/ha,30
same,"Plant response rating, Blackgrass",[7]; Rate 62 g/ha,50
same,"Plant response rating, Blackgrass",[7]; Rate 125 g/ha,60
same,"Plant response rating, Blackgrass",[7]; Rate 250 g/ha,70
same,"Plant response rating, Downy brome",[8]; Rate 31 g/ha,30
same,"Plant response rating, Downy brome",[8]; Rate 62 g/ha,50
same,"Plant response rating, Downy brome",[8]; Rate 125 g/ha,60
same,"Plant response rating, Galium",[13]; Rate 31 g/ha,20
same,"Plant response rating, Galium",[13]; Rate 62 g/ha,100
same,"Plant response rating, Galium",[13]; Rate 125 g/ha,100
same,"Plant response rating, Galium",[13]; Rate 250 g/ha,100
same,"Plant response rating, Redroot pigweed",[9]; Rate 31 g/ha,75
same,"Plant response rating, Redroot pigweed",[9]; Rate 62 g/ha,70
same,"Plant response rating, Redroot pigweed",[9]; Rate 125 g/ha,75
same,"Plant response rating, Redroot pigweed",[9]; Rate 250 g/ha,70
same,"Plant response rating, Russian thistle",[10]; Rate 31 g/ha,10
same,"Plant response rating, Russian thistle",[10]; Rate 62 g/ha,100
same,"Plant response rating, Russian thistle",[10]; Rate 250 g/ha,100
same,"Plant response rating, Sugar beet",[11]; Rate 31 g/ha,30
same,"Plant response rating, Sugar beet",[11]; Rate 62 g/ha,100
same,"Plant response rating, Sugar beet",[11]; Rate 125 g/ha,85
same,"Plant response rating, Sugar beet",[11]; Rate 250 g/ha,100
same,"Plant response rating, Wheat (winter)",[12]; Rate 31 g/ha,10
same,"Plant response rating, Wheat (winter)",[12]; Rate 62 g/ha,10
same,"Plant response rating, Wheat (winter)",[12]; Rate 125 g/ha,20
same,"Plant response rating, Wheat (winter)",[12]; Rate 250 g/ha,40
